# Measured values: patent publication US12478081B2, “Application of aspartic acid derivative in preparing animal feed additive” (ANIPHA TECHNOLOGIES PTY LTD, priority 2018, dated 2025)
# Marks after values point to notes of the source that are not given here.
# Tested on: broilers
# Assay: Breeding test: production performance of broilers
# Format: in vivo, yellow-feathered broilers
# Details: 300 ppm, compared with the control group
# From the text: The test adopted a single-factor random design. 420 1-day-old yellow-feathered broilers with similar body weights and having an average weight of 50 g were selected and randomly divided into 7 treatment groups, with 3 replications per group and 20 yellow-feathered broilers (half of male and female) per replication. The poultry houses and utensils were sterilized before the test. During the test period, the Jingbai laying hens were cage cultured in the same laying henhouse under the same feeding and management conditions. The basal daily ration was mainly corn-soybean meal, and no other antioxidant ingredients or growth promoters were added additionally during the entire feeding process. The test groups include a control group and test groups I-VII. The basal daily ration was fed for the control group I only, and 300 ppm of different aspartic acid derivatives were added into the basal daily ration for the test groups II-VII, as shown in Table 5. The test period was 20 days. The test yellow-feathered broilers were free to drink water and eat feed, and were fed twice a day. Taking each repetition as a unit, the test broilers were weighed at the age of 21 days (where provisioning of feeds was stopped for 12 hours, but provisioning of water was not stopped), the feed consumption of the test broilers were calculated, and the average daily feed intake (ADFI, g/d*each broiler), the average daily gain (ADG, g/d*each broiler) and the feed conversion ratio (FCR) were calculated for the test broilers of each group. Calculation formulas are as follows: […]
# (§1) The test data was statistically analyzed using SPSS18 software. First, a one-way analysis of variance (ANOVA) was performed on the data. If the difference between treatments is significant, Duncan's method was used for multiple comparisons, and the significance level was 0.05.
row,SMILES,effect on the average daily gain of the test broilers (in words)
1,"NC(=O)NC(CC(=O)O)C(=O)O (racemic) [Compound 1, N-carbamoyl-DL-aspartic acid]",the most significant
2,"CCOC(=O)CC(NC(N)=O)C(=O)OCC (racemic) [Compound 2, diethyl N-carbamoyl-DL-aspartate]",the most significant

# Same assay, conditions: broilers, 300 ppm in basal daily ration, 20 days
SMILES,ADFI (g/d*each broiler),ADG (g/d*each broiler),FCR
"NC(=O)NC(CC(=O)O)C(=O)O (racemic) [Compound 1, N-carbamoyl-DL-aspartic acid]",38.83 ± 0.53 g/d*each broiler,16.59 ± 0.14^b g/d*each broiler,2.34 ± 0.03^b
"CCOC(=O)CC(NC(N)=O)C(=O)OCC (racemic) [Compound 2, diethyl N-carbamoyl-DL-aspartate]",40.05 ± 0.81^d g/d*each broiler,16.81 ± 0.68^b g/d*each broiler,2.39 ± 0.05^b
"NCC(=O)NC(CC(=O)O)C(=O)O (racemic) [Compound 8, N-glycyl-DL-aspartic acid]",36.05 ± 0.83^b g/d*each broiler,14.48 ± 0.24^b g/d*each broiler,2.49 ± 0.03^ab
"NCCCC(=O)NC(CC(=O)O)C(=O)O (racemic) [Compound 9, N-(4-aminobutyryl)-DL-aspartic acid]",37.92 ± 0.53^c g/d*each broiler,15.84 ± 0.10^b g/d*each broiler,2.39 ± 0.04^b
"NCCCCCCCCCC(=O)NC(CC(=O)O)C(=O)O (racemic) [Compound 10, N-(10-aminodecanoyl)-DL-aspartic acid]",34.82 ± 0.64^a g/d*each broiler,14.40 ± 0.15^b g/d*each broiler,2.42 ± 0.04^b
"NCCCCCCCCCCCCCC(=O)NC(CC(=O)O)C(=O)O (racemic) [Compound 11, N-(14-aminomyristoyl)-DL-aspartic acid]",36.70 ± 0.54^ac g/d*each broiler,15.02 ± 0.13^b g/d*each broiler,2.44 ± 0.04^b

# Tested on: laying hens
# Assay: Breeding test: production performance of laying hens
# Format: in vivo, Jingbai laying hens
# Details: 500 ppm in basal daily ration, 158 days
# From the text: The test adopted a single-factor random design. 420 147-day-old Jingbai laying hens with similar body weights were selected and randomly divided into 7 treatment groups, with 3 replications per group and 20 Jingbai laying hens (half of male and female) per replication. The poultry houses and utensils were sterilized before the test. During the test period, the Jingbai laying hens were cage cultured in the same laying poultry house under the same feeding and management conditions. The basal daily ration was mainly corn-soybean meal, and no other antioxidant ingredients or growth promoters were added additionally during the entire feeding process. The test groups include a control group and test groups I-VII. The basal daily ration was fed for the control group I only, and 500 ppm of different aspartic acid derivatives were added into the basal daily ration for the test groups II-VII, as shown in Table 3. The pre-feeding period was 10 days, and the test period was 158 days. The test laying hens were free to drink water and eat feed, and were fed twice a day.
# Parameter statistics: During the test period, taking each repetition as a unit, the total egg number, the egg production, and the feed intake were recorded every day, and the egg production rate (EPR), the average daily feed intake (ADFI, g/d), the egg weight (EW, g) and the feed-to-egg ratio (FER) of the laying hens during the entire test were calculated.
# Calculation formulas are as follows: […]
# as §1
SMILES,ADFI [g/day],EPR (%),EW (g)
"NC(=O)NC(CC(=O)O)C(=O)O (racemic) [Compound 1, N-carbamoyl-DL-aspartic acid]",113.44 ± 1.55,85.80 ± 0.14^b %,55.49 ± 0.38^b g
"CCOC(=O)CC(NC(N)=O)C(=O)OCC (racemic) [Compound 2, diethyl N-carbamoyl-DL-aspartate]",115.19 ± 3.14,86.28 ± 0.20^b %,55.94 ± 0.37^b g
"NCC(=O)NC(CC(=O)O)C(=O)O (racemic) [Compound 8, N-glycyl-DL-aspartic acid]",113.01 ± 2.31,84.86 ± 0.24^c %,54.98 ± 0.39^a g
"NCCCC(=O)NC(CC(=O)O)C(=O)O (racemic) [Compound 9, N-(4-aminobutyryl)-DL-aspartic acid]",113.64 ± 2.43,86.09 ± 0.18^b %,55.44 ± 0.37^b g
"NCCCCCCCCCC(=O)NC(CC(=O)O)C(=O)O (racemic) [Compound 10, N-(10-aminodecanoyl)-DL-aspartic acid]",119.31 ± 1.84,85.24 ± 0.18^c %,57.45 ± 0.47^c g
"NCCCCCCCCCCCCCC(=O)NC(CC(=O)O)C(=O)O (racemic) [Compound 11, N-(14-aminomyristoyl)-DL-aspartic acid]",115.13 ± 2.91,85.24 ± 0.17^c %,55.45 ± 0.35^b g

# Same assay, conditions: Table 4, 500 ppm in basal daily ration, 158 days
row,SMILES,feed-to-egg ratio
1,"NC(=O)NC(CC(=O)O)C(=O)O (racemic) [Compound 1, N-carbamoyl-DL-aspartic acid]",2.04 ± 0.02
2,"CCOC(=O)CC(NC(N)=O)C(=O)OCC (racemic) [Compound 2, diethyl N-carbamoyl-DL-aspartate]",2.06 ± 0.04
3,"NCC(=O)NC(CC(=O)O)C(=O)O (racemic) [Compound 8, N-glycyl-DL-aspartic acid]",2.06 ± 0.03
4,"NCCCC(=O)NC(CC(=O)O)C(=O)O (racemic) [Compound 9, N-(4-aminobutyryl)-DL-aspartic acid]",2.05 ± 0.04
5,"NCCCCCCCCCC(=O)NC(CC(=O)O)C(=O)O (racemic) [Compound 10, N-(10-aminodecanoyl)-DL-aspartic acid]",2.08 ± 0.03
6,"NCCCCCCCCCCCCCC(=O)NC(CC(=O)O)C(=O)O (racemic) [Compound 11, N-(14-aminomyristoyl)-DL-aspartic acid]",2.08 ± 0.04
